We go through three compounds from patent US6417394B2, “Specific salt forms of triphenylethylene derivatives as selective estrogen receptor modulators” (Bristol Myers Squibb Pharma Company, priority 2000, dated 2002).

A short description of this data set: aqueous equilibrium solubility. It counts as physicochemical. Particulars: aqueous suspension on a rotator for 48 hours at room temperature; filtered 0.45-micrometer PTFE; HPLC. Here is the method: The aqueous equilibrium solubility of 3-[4(1,2-diphenyl-but-1-enyl)-phenyl]-acrylic acid, a SERM compound, and its meglumine and lysine salts were determined by placing aqueous suspensions of the corresponding compound on a rotator for 48 hours at room temperature. The samples were filtered using a 0.45-micrometer PTFE filter and analyzed by HPLC. The pH of the filtrate was also determined.

Structures are written as SMILES.

`CCC(=C(c1ccccc1)c1ccc(C=CC(=O)O)cc1)c1ccccc1` [3-[4(1,2-diphenyl-but-1-enyl)-phenyl]-acrylic acid (free aci] had an equilibrium aqueous solubility of 0.0086 mg/mL. `CCC(=C(c1ccccc1)c1ccc(C=CC(=O)O)cc1)c1ccccc1` [3-[4(1,2-diphenyl-but-1-enyl)-phenyl]-acrylic acid (lysine s] showed an equilibrium aqueous solubility of 0.4 mg/mL. To `CCC(=C(c1ccccc1)c1ccc(C=CC(=O)O)cc1)c1ccccc1` [3-[4(1,2-diphenyl-but-1-enyl)-phenyl]-acrylic acid (meglumin] belongs 0.7 mg/mL.
